Among the test systems are HCC-2998 colon; IGROV1 ovarian; LOX IMVI melanoma; M14 melanoma; MCF7 breast; NCI-H226 lung; NCI-H23 lung; RPMI-8226 leukemia; SNB-75 CNS; SK-MEL-2 melanoma.
Common to all, as to assay: NCI anticancer screen, dose series, 48 h

Values joined by “and” are separate entries in the source; they are usually repeats but may differ in a detail not shown here. Equal entries are not always repeated.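 Following 48 hours of exposure in 96-well plates, responses at five concentrations were used to interpolate endpoints linearly. GI50 = concentration required for 50% inhibition of growth. TGI is the concentration that stops growth completely.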 A value given as a limit tells only on which side of the number the result lay.

As to `CC(=O)OC12c3ccccc3C(c3ccccc31)C1C(=O)N(N=C(C)C)C(=O)C12` (stereo unspecified), the TGI in the experiment on HCC-2998 colon, in the experiment with IGROV1 ovarian, in the experiment with LOX IMVI melanoma, in the experiment with M14 melanoma, in the experiment on MCF7 breast and with NCI-H226 lung was > 100 µM throughout. The TGI in the experiment with NCI-H23 lung, with RPMI-8226 leukemia and in the experiment on SNB-75 CNS was > 100 µM each time.
With `Cc1n[nH]c(=O)n1-n1cccc1`, the TGI in the experiment on HCC-2998 colon, in the experiment on IGROV1 ovarian, in the experiment with LOX IMVI melanoma, with M14 melanoma, in the experiment on MCF7 breast and in the experiment with NCI-H226 lung was > 100 µM in each case. Besides, the TGI in the experiment with NCI-H23 lung, in the experiment on RPMI-8226 leukemia, in the experiment on SK-MEL-2 melanoma and with SNB-75 CNS was > 100 µM each time.
In the case of `Cc1cccc2c1nc1n2C(=O)c2ccccc2-1`, the TGI in the experiment on HCC-2998 colon, in the experiment on IGROV1 ovarian, with M14 melanoma, in the experiment on MCF7 breast, in the experiment on NCI-H226 lung and with NCI-H23 lung was > 100 µM throughout. For the same compound, the TGI in the experiment on RPMI-8226 leukemia, with SK-MEL-2 melanoma and in the experiment with SNB-75 CNS was > 100 µM in each case.
For the compound `BrC1(c2ccccc2)C[n+]2c(-c3ccccc3)cc(-c3ccccc3)cc2-c2ccccc21` (stereo unspecified), the TGI in the experiment with HCC-2998 colon was 0.742 µM; in the experiment on IGROV1 ovarian it was 5.14 µM; in the experiment with LOX IMVI melanoma, 1.82 µM; with M14 melanoma, 15.5 µM; with MCF7 breast, 0.735 µM; with NCI-H226 lung it was 12.2 µM. Also, the TGI with NCI-H23 lung worked out at 34.5 µM; in the experiment with RPMI-8226 leukemia it was 1.13 µM; with SK-MEL-2 melanoma it was 1.08 µM; in the experiment on SNB-75 CNS, 0.621 µM.
Regarding `CC(C)Oc1cccc(N2C(CCc3c[nH]c4ccc(Br)cc34)=NS(=O)(=O)c3cnccc32)c1`, the TGI in the experiment with HCC-2998 colon was > 100 µM; in the experiment on LOX IMVI melanoma, > 100 µM; with M14 melanoma, > 100 µM; with MCF7 breast, > 100 µM; in the experiment with NCI-H226 lung it was 97.8 µM; in the experiment with NCI-H23 lung it was > 100 µM. In addition, the TGI in the experiment on RPMI-8226 leukemia, in the experiment on SK-MEL-2 melanoma and in the experiment on SNB-75 CNS was > 100 µM each time.
`O=C(/C=C\c1ccccc1)Oc1ccc(/C=C2\CCC/C(=C\c3ccc(OC(=O)/C=C\c4ccccc4)cc3)C2=O)cc1`: the TGI with HCC-2998 colon, with LOX IMVI melanoma, in the experiment with M14 melanoma, in the experiment with MCF7 breast, in the experiment with NCI-H23 lung and in the experiment on RPMI-8226 leukemia was > 100 µM each time. In addition, the TGI with SK-MEL-2 melanoma and in the experiment on SNB-75 CNS was > 100 µM each time.
As to `O=c1[nH]c2c(Nc3c4ccccc4nc4ccccc34)c([N+](=O)[O-])c(Nc3c4ccccc4nc4ccccc34)c([N+](=O)[O-])c2[nH]1`, the TGI in the experiment with HCC-2998 colon came to 3.5 µM; with IGROV1 ovarian, 5.18 µM; with LOX IMVI melanoma, 7.79 µM; in the experiment on M14 melanoma, 4.76 µM; in the experiment with MCF7 breast, 10.2 µM; in the experiment with NCI-H226 lung, 6.3 µM. For the same compound, the TGI in the experiment on NCI-H23 lung worked out at 2.74 µM; with RPMI-8226 leukemia it was 8.27 µM; in the experiment on SK-MEL-2 melanoma, 3.93 µM; in the experiment on SNB-75 CNS, 7.79 µM.
As for `C/C(=N\NC(=S)NC(C)(C)C)c1nc2ncccc2[nH]1`, the TGI in the experiment with HCC-2998 colon is > 68.6 µM; in the experiment on IGROV1 ovarian it was 50.6 µM; in the experiment on LOX IMVI melanoma it was > 100 µM; with M14 melanoma it was > 100 µM; in the experiment on MCF7 breast, > 100 µM; with NCI-H226 lung it was 13.9 µM. In addition, the TGI in the experiment with NCI-H23 lung is > 100 µM; in the experiment on RPMI-8226 leukemia, > 100 µM; in the experiment on SK-MEL-2 melanoma, > 80.3 µM; with SNB-75 CNS, > 84.5 µM.
Take `COc1ccc(O[C@H](CO)C[C@@H]2COC(C)(C)O2)cc1`: the TGI with HCC-2998 colon, in the experiment with IGROV1 ovarian, with LOX IMVI melanoma, with M14 melanoma, with MCF7 breast and with NCI-H226 lung was > 100 µM in each case. In addition, the TGI in the experiment on NCI-H23 lung, in the experiment with RPMI-8226 leukemia, in the experiment on SK-MEL-2 melanoma and with SNB-75 CNS was > 100 µM each time.
Take `CC(C)OC(=O)C(NC(=O)C(CC(=O)OCc1ccccc1)NC(=O)OCc1ccccc1)NC(=O)C1C(C)(C)CCC1(C)C` (stereo unspecified): the TGI is > 56.5 µM in the experiment on HCC-2998 colon; 64.2 µM in the experiment with IGROV1 ovarian; 11.6 µM in the experiment with LOX IMVI melanoma; > 57.1 µM with M14 melanoma; 28.4 µM in the experiment with MCF7 breast; 22.8 µM in the experiment on NCI-H226 lung. The TGI with NCI-H23 lung worked out at 23.9 µM; in the experiment with RPMI-8226 leukemia, 24.2 µM; in the experiment with SK-MEL-2 melanoma, 58.4 µM; in the experiment with SNB-75 CNS, 11.5 µM.
As to `COC(=O)C(Cc1ccccc1)NC(=O)C(CNC(=O)OCc1ccccc1)C(=O)OCc1ccccc1` (stereo unspecified), the TGI in the experiment with HCC-2998 colon was > 100 µM; in the experiment on IGROV1 ovarian, > 100 µM; in the experiment with M14 melanoma, > 100 µM and 26.8 µM; in the experiment on MCF7 breast it was > 100 µM and 79.8 µM; in the experiment on NCI-H226 lung, > 100 µM; in the experiment on NCI-H23 lung, > 100 µM. For the same compound, the TGI with RPMI-8226 leukemia, in the experiment on SK-MEL-2 melanoma and with SNB-75 CNS was > 100 µM each time. Moreover, the GI50 in the experiment on M14 melanoma was > 100 µM and 10.2 µM.
With `COc1cc(C=O)cc(C=Nc2ccc(Br)cc2)c1O`, the TGI is 38.9 µM with HCC-2998 colon; > 100 µM in the experiment on IGROV1 ovarian; 29.8 µM with LOX IMVI melanoma; 14.2 µM in the experiment on M14 melanoma; > 100 µM in the experiment with MCF7 breast; 8.19 µM in the experiment with NCI-H226 lung. For the same compound, the TGI in the experiment with NCI-H23 lung is > 100 µM; in the experiment on RPMI-8226 leukemia it was 21.8 µM; with SK-MEL-2 melanoma, 17.6 µM; in the experiment with SNB-75 CNS, > 100 µM.
As to `Clc1[nH]nc2ccccc12`, the TGI in the experiment on HCC-2998 colon, in the experiment on IGROV1 ovarian, in the experiment on M14 melanoma, with MCF7 breast, in the experiment with NCI-H226 lung and in the experiment with NCI-H23 lung was > 100 µM in each case. Also, the TGI in the experiment with RPMI-8226 leukemia, in the experiment on SK-MEL-2 melanoma and in the experiment on SNB-75 CNS was > 100 µM in each case.
On to `CC(C)CNP(=O)(NCC(C)C)Oc1ccc(CC(NC(=O)OCc2ccccc2)C(=O)OCc2ccccc2)cc1` (stereo unspecified), for which the TGI is 30.7 µM with HCC-2998 colon; > 100 µM in the experiment with IGROV1 ovarian; 32.5 µM in the experiment with LOX IMVI melanoma; 67.7 µM in the experiment on M14 melanoma; 24.7 µM in the experiment on MCF7 breast; > 100 µM in the experiment on NCI-H226 lung. Also, the TGI came to 32.3 µM with NCI-H23 lung, 40 µM with RPMI-8226 leukemia, 34.8 µM in the experiment with SK-MEL-2 melanoma and 39.1 µM with SNB-75 CNS.
For the compound `CCc1c(O)nc(Nc2nc3ccccc3[nH]2)[nH]c1=O`, the TGI in the experiment on HCC-2998 colon, in the experiment on IGROV1 ovarian, in the experiment with LOX IMVI melanoma, in the experiment on M14 melanoma, in the experiment with MCF7 breast and in the experiment with NCI-H226 lung was > 100 µM each time. For the same compound, the TGI in the experiment with NCI-H23 lung, in the experiment with SK-MEL-2 melanoma and in the experiment on SNB-75 CNS was > 100 µM each time.
`CCCCCCCCCCCC1=C(O)C(=O)C(CC2=C(O)C(=O)C(CCCCCCCCCCC)=C(O)C2=O)=C(O)C1=O`: the TGI in the experiment with HCC-2998 colon, with IGROV1 ovarian, in the experiment on LOX IMVI melanoma, in the experiment with M14 melanoma, in the experiment with MCF7 breast and in the experiment with NCI-H226 lung was > 100 µM throughout. Moreover, the TGI in the experiment on NCI-H23 lung is > 100 µM; with SK-MEL-2 melanoma, > 100 µM; with SNB-75 CNS, 37.5 µM.
Consider `COC(=O)CCC(C)[C@H]1CCC2C3CC[C@@H]4CC5(CC[C@]4(C)C3C[C@H](OC(C)=O)[C@@]21C)OOC1(CCCCC1)OO5` (stereo partly specified), for which the TGI in the experiment with HCC-2998 colon was 9.2 µM; in the experiment with IGROV1 ovarian, 5.48 µM; in the experiment with M14 melanoma, > 100 µM; in the experiment on MCF7 breast, > 100 µM; with NCI-H226 lung, > 100 µM; in the experiment with NCI-H23 lung, > 100 µM. Besides, the TGI was 10.8 µM in the experiment on RPMI-8226 leukemia, 52.2 µM in the experiment with SK-MEL-2 melanoma and > 100 µM with SNB-75 CNS.
With `Cc1cc(-c2ccc(N=Nc3ccc4c(S(=O)(=O)O)cc(S(=O)(=O)O)c(N)c4c3O)c(C)c2)ccc1N=Nc1ccc2c(S(=O)(=O)O)cc(S(=O)(=O)O)c(N)c2c1O`, the TGI in the experiment on HCC-2998 colon, in the experiment on IGROV1 ovarian, in the experiment with LOX IMVI melanoma, in the experiment on MCF7 breast, in the experiment with NCI-H226 lung and with NCI-H23 lung was > 100 µM throughout. Further, the TGI in the experiment with RPMI-8226 leukemia, in the experiment on SK-MEL-2 melanoma and with SNB-75 CNS was > 100 µM throughout.
With `C[n+]1c2ccccc2n2c3ccccc3c(NCCCn3ccnc3)c(C#N)c21`, the TGI in the experiment with HCC-2998 colon is 3.1 µM; in the experiment on LOX IMVI melanoma it was 2.51 µM; with M14 melanoma, 5.23 µM; with MCF7 breast it was > 34 µM; in the experiment with NCI-H226 lung, 9.11 µM; in the experiment with NCI-H23 lung, 9.13 µM. In addition, the values for the TGI with SK-MEL-2 melanoma and with SNB-75 CNS were 4.71 µM and 4.66 µM, respectively.
For the compound `COc1ccccc1N=Nc1c(O)ccc2ccccc12`, the TGI was 71 µM in the experiment with HCC-2998 colon; > 100 µM in the experiment on IGROV1 ovarian; > 100 µM with LOX IMVI melanoma; > 100 µM in the experiment with M14 melanoma; > 100 µM in the experiment on MCF7 breast; > 100 µM in the experiment with NCI-H23 lung. In addition, the TGI in the experiment on RPMI-8226 leukemia was > 100 µM; in the experiment with SK-MEL-2 melanoma it was > 100 µM; in the experiment on SNB-75 CNS it was 41.8 µM and 39.7 µM. For the same compound, the GI50 is 3.93 µM and 35.4 µM in the experiment with IGROV1 ovarian; 25.1 µM and 55.7 µM in the experiment with LOX IMVI melanoma; 33.6 µM and 85 µM in the experiment with M14 melanoma; 30.4 µM and > 100 µM with RPMI-8226 leukemia.

The values are drawn from PubChem BioAssay (NCI).
